Reference: US20190233884A1 (University of Southern California, priority 2016, published 2019)
“Also recorded” adds a separate entry of the source.

Tested on: patients with refractory metastatic colorectal cancer (mCRC)
Test: PFS, OS and disease control in the control cohort of refractory mCRC patients receiving regorafenib (n=52, Italy), by baseline characteristics and SNP genotype
Format: in vivo, human
Conditions: for Median OS (months) / Median PFS (months): ITA REGORA cohort; for Disease Control CR/PR/SD, patients n (%) / Median OS (95% CI) / Median PFS (95% CI) / PD, patients n (%) / HR OS (95% CI) / HR PFS (95% CI) / Median OS / Median PFS / HR OS / HR PFS: control cohort
Procedure: All patients underwent the treatment in salvage-line setting.
(§1) Patients in the control group received 160 mg regorafenib (Bayer, Leverkusen, Germany) once daily from day 1 to 21 every 4 weeks. Doses were adjusted based on haematological and non-haematological adverse events at the treating physician's discretion in accordance with the manufacturer's recommendations. The analyses were approved by the University of Southern California (USC) Institutional Review Board of Medical Sciences and conducted at the USC/Norris Comprehensive Cancer Center in accordance with the Declaration of Helsinki and Good Clinical Practice Guidelines.
(§2) Genomic DNA was extracted from peripheral whole blood in patients of all cohorts using the QIAmp Kit (Qiagen, Valencia, Calif., USA) according to the manufacturer's protocol (www.qiagen.com). The candidate SNPs were genotyped using PCR-based direct DNA sequence analysis by ABI 3100A Capillary Genetic Analyzer and Sequencing Scanner v1.0 (Applied Biosystems). Amplification of extracted DNA was carried out using both forward and reverse primers for each gene polymorphism as shown in Table 1. […] The investigators analyzing SNPs were blinded to the clinical data of the study patients.
The primary endpoint in this study was progression-free survival (PFS), and the secondary endpoints were overall survival (OS) and disease control rate (DCR). PFS was calculated from the date of starting treatment to the first observation of disease progression or death from any cause. If a patient had no disease progression or death, PFS was censored at the date of last follow up. OS was calculated from the date of starting treatment until the date of death from any cause or the date of the last follow-up, at which point OS was censored. The disease control rate (DCR) was defined as the proportion of patients who achieved a stable disease (SD) or […] according to RECISTv1.1. Chi-square test was used to examine the difference in baseline patient characteristics among the three cohorts. Allelic distribution of all SNPs by ethnicity for deviation from Hardy-Weinberg equilibrium and the allelic frequencies of SNPs were tested using the Chi-square tests with one degree of freedom. The associations between candidate SNPs and disease control, and toxicities were examined using contingency tables and Fisher's exact test. The associations of SNPs with PFS and OS were analysed using Kaplan-Meier curves and the log-rank test. Because the true mode of inheritance of candidate SNPs was not established yet, a codominant or dominant genetic model if appropriate was considered.
All patients underwent the treatment in salvage-line setting. […] In all patients, adverse events were graded according to the Common Terminology Criteria for Adverse Events, version 4.0.
as §1, with “events at treating physician's” for “events at the treating physician's”
as §2, with “tested” for “genotyped”, “Biosystems).” for “Biosystems). Amplification of extracted DNA was carried out using both forward and reverse primers for each gene polymorphism as shown in Table 1.”, “data.” for “data of the study patients.”
The primary endpoint in this study was progression-free survival (PFS), and the secondary endpoints were overall survival (OS) and disease control rate (DCR). […]

[1] = ATM rs609429 Any G vs C/C (Ref.), multivariable
[2] = ATM rs609429 Any G vs C/C (Ref.), univariate
[3] = Adjuvant history No vs Yes (Ref.), univariate
[4] = Age ≥61 vs <61 (Ref.), univariate
[5] = CHEK2 rs2267130 Any C vs T/T (Ref.), multivariable
[6] = CHEK2 rs2267130 Any C vs T/T (Ref.), univariate
[7] = CHEK2 rs2267130 C/C vs T/T (Ref.), multivariable
[8] = CHEK2 rs2267130 C/C vs T/T (Ref.), univariate
[9] = CHEK2 rs2267130 T/C vs T/T (Ref.), multivariable

**Q.** Which results are given for `CNC(=O)c1cc(Oc2ccc(NC(=O)Nc3ccc(Cl)c(C(F)(F)F)c3)c(F)c2)ccn1` [regorafenib]?
**A.** Median OS (months) (ATM rs609429 C/C (n=28)): 4.5 months; Median OS (months) (ATM rs609429 G/C or G/G (n=24)): 5.9 months; Median OS (months) (XRCC3 rs861539 G/A (n=37)): 5.9 months; Median PFS (months) (XRCC3 rs861539 G/A (n=37)): 1.9 months; Median OS (months) (XRCC3 rs861539 G/G (n=15)): 4.1 months; Median PFS (months) (XRCC3 rs861539 G/G (n=15)): 1.7 months; association of candidate SNPs with PFS or OS (control cohort receiving regorafenib without previous TAS-102, uni- and multivariate analyses): no significant differences; also recorded: no significant association; Disease Control CR/PR/SD, patients n (%) (ATM rs609429 Any G): 9 (38%); Median OS (95% CI) (ATM rs609429 Any G): 5.9 (3.5, 10.2) months; Median PFS (95% CI) (ATM rs609429 Any G): 2.0 (1.7, 3.1) months; PD, patients n (%) (ATM rs609429 Any G): 15 (63%); HR OS (95% CI) [1]: 0.84 (0.47, 1.48); HR PFS (95% CI) [1]: 1.06 (0.60, 1.87); HR OS (95% CI) [2]: 1.91 (0.44, 8.31); HR PFS (95% CI) [2]: 0.95 (0.55, 1.66); Disease Control CR/PR/SD, patients n (%) (ATM rs609429 C/C): 8 (32%); Median OS (95% CI) (ATM rs609429 C/C): 4.6 (2.6, 7.6) months; Median PFS (95% CI) (ATM rs609429 C/C): 1.9 (1.6, 2.8) months; PD, patients n (%) (ATM rs609429 C/C): 17 (68%); Disease Control CR/PR/SD, patients n (%) (ATM rs609429 C/G): 8 (38%); PD, patients n (%) (ATM rs609429 C/G): 13 (62%); Disease Control CR/PR/SD, patients n (%) (ATM rs609429 G/G): 1 (33%); PD, patients n (%) (ATM rs609429 G/G): 2 (67%); Median OS (Adjuvant history No): 5.9 months; Median PFS (Adjuvant history No): 2.0 months; HR OS [3]: 0.59; HR PFS [3]: 0.71; Median OS (Adjuvant history Yes): 3.9 months; Median PFS (Adjuvant history Yes): 1.8 months; Median OS (Age <61): 5.1 months; Median PFS (Age <61): 1.8 months; Median OS (Age ≥61): 5.8 months; Median PFS (Age ≥61): 2.1 months; HR OS [4]: 0.74; HR PFS [4]: 0.58; Disease Control CR/PR/SD, patients n (%) (CHEK2 rs2267130 Any C): 13 (36%); Median OS (95% CI) (CHEK2 rs2267130 Any C): 5.9 (4.4, 7.9) months; Median PFS (95% CI) (CHEK2 rs2267130 Any C): 1.8 (1.7, 2.8) months; PD, patients n (%) (CHEK2 rs2267130 Any C): 23 (64%); HR OS (95% CI) [5]: 0.81 (0.42, 1.54); HR PFS (95% CI) [5]: 1.22 (0.65, 2.28); HR OS (95% CI) [6]: 0.80 (0.44, 1.48); HR PFS (95% CI) [6]: 1.07 (0.58, 1.95); Disease Control CR/PR/SD, patients n (%) (CHEK2 rs2267130 C/C): 3 (27%); Median OS (95% CI) (CHEK2 rs2267130 C/C): 5.7 (2.0, 7.8) months; Median PFS (95% CI) (CHEK2 rs2267130 C/C): 2.0 (1.5, 2.7) months; PD, patients n (%) (CHEK2 rs2267130 C/C): 8 (73%); HR OS (95% CI) [7]: 0.90 (0.41, 2.00); HR PFS (95% CI) [7]: 1.35 (0.61, 2.99); HR OS (95% CI) [8]: 0.89 (0.41, 1.97); HR PFS (95% CI) [8]: 1.18 (0.54, 2.59); Disease Control CR/PR/SD, patients n (%) (CHEK2 rs2267130 T/C): 10 (40%); Median OS (95% CI) (CHEK2 rs2267130 T/C): 6.2 (2.4, 8.9) months; Median PFS (95% CI) (CHEK2 rs2267130 T/C): 1.8 (1.6, 3.1) months; PD, patients n (%) (CHEK2 rs2267130 T/C): 15 (60%); HR OS (95% CI) [9]: 0.76 (0.38, 1.53); HR PFS (95% CI) [9]: 1.15 (0.58, 2.27); HR OS (95% CI) (CHEK2 rs2267130 T/C vs T/T (Ref.), univariate): 0.77 (0.40, 1.48)
